# US20020010113A1, “Composition” (Colgate-Palmolive Company, priority 1999, published 2002)
# Columns and labels:
# [1] = test system: stratum corneum of pig skin; details: stratum corneum immersed in 5% solution; weight at 90% relative humidity vs dry weight at 0% relative humidity
# From the text: The epidermis of full thickness pig skin (Animal Technologies, Tyler, Tex.) was removed using a Packard Instruments dermatome, and the stratum corneum was removed via trypsin digestion. Pieces of stratum corneum were then immersed in millipore water, a 5% choline chloride (Aldrich Chemical, Milwaukee, Wis.), or a 5% glycerin solution. Using a dynamic vapour sorption meter (Surface Measurement Systems, Coopersburg, Pa.), the skin was equilibrated under a 0% relative humidity environment until the change in weight varied no more than 0.005% per min. This weight was recorded as the dry weight. The relative humidity was then increased to 90%. The skin was equilibrated at this humidity until the change in weight varied no more than 0.005% per min. This weight was, likewise, recorded and the % water uptake was calculated.
# [2] = test system: Full thickness Yucatan swine skin; details: (3H3C)-choline in 25% shower gel solution (100 mg choline chloride per 20 ml); two 5 minute applications, each rinsed with 10 ml distilled water
# Protocol: The radiolabelling experiment described in this example was carried out to quantify the amount of choline that could adhere to the skin following a water rinse. Full thickness Yucatan swine skin (Charles River, Inc., Wilmington, Mass.) was mounted (dermis side down) onto a special sample holder, the dimensions of which were previously described in U.S. Pat. No. 4,836,014. This sample holder exposed approximately 4.91 cm^2 of the skin. A 1 ml aliquot of (^3H3C)-choline (American Radiolabel Chemicals, Inc., St. Louis, Mo.) containing shower gel was next applied to the surface of the exposed skin. […] After five minutes had elapsed, the shower gel was removed, and the surface of the skin was rinsed with 10 ml of distilled water. A second 1 ml aliquot of the (^3H3C)-choline containing shower gel was then reapplied to the skin. Again, after a 5 minute exposure time, the shower gel was removed and the skin rinsed with 10 ml of distilled water. The skin sample was then removed from its sample holder and air-dried for 10 minutes. Four 4 mm diameter punches were collected from each piece of treated skin, oxidized in a Packard oxidizer, and counted in a Packard 2000 Tri-carb liquid scintillation analyzer (Packard Instruments Inc., Downers Grove, Ill.). To obtain the specific activity, 0.1 ml of the (^3H3C)-choline containing shower gel was counted in the Packard 2000 analyzer.
SMILES,% Water Uptake [1],amount of choline remaining on the skin following a water rinse [2]
"C[N+](C)(C)CCO.[Cl-] [5% Choline, choline chloride]",89 ± 14%,33 μg/cm^2
"OCC(O)CO [5% Glycerin, glycerin, reference compound]",75 ± 6%,–
